# Assay results published in patent publication US12544373B2, “Treatment of cancer, inflammatory diseases and autoimmune diseases” (Usher III Initiative, Inc., priority 2020, dated 2026).
# Where two headings read alike, the source gives them in different places.
# Experiments:
# Format in all cases: cell-based, human
# CXF HCC-2998 = assay: CellTiter-Blue 2D monolayer assay (Example 1), colon; conditions: for Test/Control (%): 72 h
# Procedure: (§1) Compound 85 was assessed in 10 human tumor cell lines (see Table 3) for anti-cancer activity in vitro using a CellTiter-Blue® based 2D monolayer assay.
# (§2) CellTiter-Blue® Cell Viability Assay: Tumor cells were grown at 37° C. in a humidified atmosphere with 5% CO2 in RPMI medium, supplemented with 10% (v/v) fetal calf serum and 50 μg/ml gentamicin (140 μl/well). Cultures were incubated at 37° C. and 5% CO2 in a humidified atmosphere. After 24 hours, 10 μl of Compound 85 was added, and left on the cells for another 72 hours (incubation period). Compound 85 was tested at 5 concentrations (0.003 μM, 0.03 μM, 0.3 μM, 3 μM, and 30 μM) and serially diluted in DMSO, mixed with cell culture medium, and added to the assay plates by using a Tecan Freedom EVO 200 robotic platform. The DMSO concentration was kept constant at 0.3% yip across the assay plate. Every 96 well plate included six DMSO-treated control wells and Compound 85-treated wells in duplicate at 5 concentrations. Viability of cells was quantified using the CellTiter-Blue® cell viability assay (Promega G8081). After incubation of cells, the CellTiter-Blue® reagent was brought to ambient temperature. Next, 20 μl of CellTiter-Blue® reagent were added to each well. After incubation tier up to 4 hours, fluorescence (FU) was measured using the EnSpire® multimode plate reader (Perkin Elmer) ([…]).
# (§3) Data Evaluation: Sigmoidal concentration-response curves were fitted to the data points (test-versus-control; T/C values) obtained for each tumor model using 4 parameter non-linear curve fit (Charles River DRS Datawarehouse Software). Drug effects are expressed in terms of the percentage of the fluorescence signal, obtained by comparison of the mean signal in the treated wells with the mean signal of the untreated controls (T/C-value [%]) (Table 4). IC50 and IC70 values were reported as relative and absolute IC50 and IC70 values (Table 5). The absolute IC50 and IC70 values reflect the concentration of Compound 85 that achieves T/C=50% and T/C=30%, respectively. The relative IC50 value is the concentration of Compound 85 that gives a response half way between the top and bottom plateau of the sigmoidal concentration-response curve (inflection point of the curve).
# CXF LS 174T = assay: as above; conditions: for Test/Control (%): 72 h
# Procedure: as §1, §2, §3
# PRXF PC-3 = assay: CellTiter-Blue 2D monolayer assay (Example 1), prostate; conditions: for Test/Control (%): 72 h
# Procedure: as §1, §2, §3
# PRXF DU-145 = assay: as above; conditions: for Test/Control (%): 72 h
# Procedure: as §1, §2, §3
# SXFO Saos-2 = assay: CellTiter-Blue Cell Viability Assay (Example 2), osteosarcoma; conditions: for T/C %: 72 h
# From the text: (§4) The CellTiter-Blue® Cell Viability Assay was used to assess the viability of cells from various cancer cell lines, in the presence or absence of Compound 85 (at different concentrations). This assay provides a homogeneous, fluorometric method for estimating the number of viable cells present in multi-well plates. Viable cells retain the ability to reduce resazurin to resorufin, which is highly fluorescent. […] The fluorescence produced is proportional to the number of viable cells. There is a linear relationship between cell number and fluorescence.
# (§5) Cancer cells (see Table 6) were harvested from exponential phase cultures, counted and plated in 96 well flat-bottom microtiter plates, at a cell density 6,000-20,000 cells/well, depending on the cell line's growth rate. The culture medium was supplemented with 10% (v/v) foetal calf serum and 50 μg/mL gentamicin (140 μL/well). Cultures were incubated at 37° C. and 5% CO2 in a humidified atmosphere.
# (§6) Compound 85 was serially diluted in DMSO, and five Compound 85 concentrations in half-log increments were used: 0.03 μM, 0.09 μM, 0.30 μM, 1.0 μM, and 3.0 μM. After 24 h, 10 μL of Compound 85 (dissolved in DMSO) or control (DMSO) medium were added, in duplicates, and left on the cells for another 72 h. Compound 85 solutions were added to the assay plates using a Tecan Freedom EVO 200 robotic platform. The DMSO concentration was kept constant at 0.3% v/v across the assay plate.
# (§7) After incubation of up to 72 hours, fluorescence (FU) was measured using the EnSpire® multimode plate reader (Perkin Elmer) (excitation λ=570 nm, emission λ=600 nm).
# (§8) Cancer cell lines used: Compound 85's anti-cancer effect was tested in 20 human cancer-cell lines representing nine cancer types (Table 6).
# (§9) The percentage of viable cells in the presence of Compound 85 (Test condition, T), at different concentrations, are presented in Table 7 and expressed as a percentage of the number of viable cells in the presence of DMSO without Compound 85 (Control condition, C).
# (§10) The relative IC50 is determined as the Compound 85 concentration giving a response halfway between the maximum cell viability signal (i.e., a 100% cell viability, no Compound 85 response) and the minimal viability signal (i.e. maximum cell viability inhibition achieved by Compound 85), in a sigmoidal concentration-effect curve.
# (§11) The absolute IC50 is determined as the concentration that is associated with a T/C ratio of 50%.
# SXFO 678 = assay: as above; conditions: for T/C %: 72 h
# From the text: as §4, §5, §6, §7, §8, §9, §10, §11
compound,measurement,setting,value
CC(C)(O)Cn1nc(-c2ccccc2)c2c(Cl)c(-c3ccccc3)nnc21 [Compound 85],Rel. IC70,CXF HCC-2998,1630 nM
same,Test/Control (%),CXF HCC-2998; 0.003 μM,97%
same,Test/Control (%),CXF HCC-2998; 0.03 μM,100%
same,Test/Control (%),CXF HCC-2998; 0.3 μM,90%
same,Test/Control (%),CXF HCC-2998; 3 μM,13%
same,Test/Control (%),CXF HCC-2998; 30 μM,1%
same,Abs. IC70,CXF HCC-2998; T/C=30%,1628 nM
same,IC50,"CXF HCC-2998; T/C=50%, read-out: Abs. IC50",1020 nM
same,Bot. (%),CXF HCC-2998; bottom plateau of curve,1%
same,IC50,CXF HCC-2998; read-out: Rel. IC50,1030 nM
same,Top (%),CXF HCC-2998; top plateau of curve,99%
same,Rel. IC70,CXF LS 174T,328 nM
same,Test/Control (%),CXF LS 174T; 0.003 μM,103%
same,Test/Control (%),CXF LS 174T; 0.03 μM,101%
same,Test/Control (%),CXF LS 174T; 0.3 μM,35%
same,Test/Control (%),CXF LS 174T; 3 μM,4%
same,Test/Control (%),CXF LS 174T; 30 μM,0%
same,Abs. IC70,CXF LS 174T; T/C=30%,346 nM
same,IC50,"CXF LS 174T; T/C=50%, read-out: Abs. IC50",215 nM
same,Bot. (%),CXF LS 174T; bottom plateau of curve,1%
same,IC50,CXF LS 174T; read-out: Rel. IC50,204 nM
same,Top (%),CXF LS 174T; top plateau of curve,103%
same,Rel. IC70,PRXF PC-3,1326 nM
same,Test/Control (%),PRXF PC-3; 0.003 μM,104%
same,Test/Control (%),PRXF PC-3; 0.03 μM,103%
same,Test/Control (%),PRXF PC-3; 0.3 μM,103%
same,Test/Control (%),PRXF PC-3; 3 μM,2%
same,Test/Control (%),PRXF PC-3; 30 μM,1%
same,Abs. IC70,PRXF PC-3; T/C=30%,1349 nM
same,IC50,"PRXF PC-3; T/C=50%, read-out: Abs. IC50",1100 nM
same,Bot. (%),PRXF PC-3; bottom plateau of curve,1%
same,IC50,PRXF PC-3; read-out: Rel. IC50,1080 nM
same,Top (%),PRXF PC-3; top plateau of curve,103%
same,Rel. IC70,PRXF DU-145,1376 nM
same,Test/Control (%),PRXF DU-145; 0.003 μM,100%
same,Test/Control (%),PRXF DU-145; 0.03 μM,110%
same,Test/Control (%),PRXF DU-145; 0.3 μM,102%
same,Test/Control (%),PRXF DU-145; 3 μM,11%
same,Test/Control (%),PRXF DU-145; 30 μM,6%
same,Abs. IC70,PRXF DU-145; T/C=30%,1528 nM
same,IC50,"PRXF DU-145; T/C=50%, read-out: Abs. IC50",1090 nM
same,Bot. (%),PRXF DU-145; bottom plateau of curve,6%
same,IC50,PRXF DU-145; read-out: Rel. IC50,1000 nM
same,Top (%),PRXF DU-145; top plateau of curve,105%
same,Absolute IC70,SXFO Saos-2,747 nM
same,Relative IC70,SXFO Saos-2,750 nM
same,T/C %,SXFO Saos-2; 0.03 μM,97%
same,T/C %,SXFO Saos-2; 0.095 μM,93%
same,T/C %,SXFO Saos-2; 0.3 μM,99%
same,T/C %,SXFO Saos-2; 0.95 μM,1%
same,T/C %,SXFO Saos-2; 3.0 μM,0%
same,IC50,SXFO Saos-2; read-out: Absolute IC50,709 nM
same,IC50,SXFO Saos-2; read-out: Relative IC50,712 nM
same,Absolute IC70,SXFO 678,532 nM
same,Relative IC70,SXFO 678,531 nM
same,T/C %,SXFO 678; 0.03 μM,101%
same,T/C %,SXFO 678; 0.095 μM,97%
same,T/C %,SXFO 678; 0.3 μM,91%
same,T/C %,SXFO 678; 0.95 μM,2%
same,T/C %,SXFO 678; 3.0 μM,1%
same,IC50,SXFO 678; read-out: Absolute IC50,458 nM
same,IC50,SXFO 678; read-out: Relative IC50,458 nM
